{
  "source": "patent US6462086B1",
  "about": "“Non-malignant disease treatment with Ras antagonists” (Ramot University Authority for Applied Research and …, priority 1999, dated 2002)",
  "key": {"[1]": {"system": "TAA-induced liver cirrhosis in Wistar rats", "assay": "Hepatic hydroxyproline levels in TAA-induced cirrhosis", "assay_type": "in vivo, rat", "experimental": "Liver cirrhosis was induced in rats by intraperitoneal (i.p.) administration of TAA 200 mg/kg twice weekly for 12 weeks, as previously described (1, 2). […] The FTS was dissolved in PBS and administered i.p. 3 times a week to rats according to their assigned groups. Four groups containing 6 rats each were treated as follows. One group received TAA 200 mg/kg i.p. twice a week and i.p. injections of PBS 3 days a week for 12 weeks (cirrhotic controls for the FTS-treated groups). A second group received TAA for 12 weeks and FTS 5 mg/kg, 3 times a week. […] The two control groups consisted of one that received PBS injections without TAA for 12 weeks (normal controls) and a group of 5 rats that received only FTS 5 mg/kg i.p. for 12 weeks to monitor the appearance of adverse effects. Quantitative determination of hepatic hydroxyproline levels was performed as previously described (2). The hydroxyproline levels were analyzed twice and separately for each liver."}, "[2]": {"system": "spleen lymphocytes of MRL/lpr and MRL/++ mice", "assay": "MRL/lpr and MRL/++ mouse spleen lymphocyte proliferation ex vivo", "assay_type": "in vivo", "settings": "for response to ConA (stimulation index): 5 mg/Kg FTS for 3 months", "experimental": "Mice were killed by cervical dislocation and spleens removed with sterile precautions and placed in disposable plastic Petri dishes containing Dulbecco's phosphate-buffered saline (DPBS). Single cell suspensions were obtained by expressing DPBS through the spleen using a syringe and 19 gauge needle. The cells were suspended in DPBS and centrifuged at 1100 rpm for 7 minutes. Erythrocytes were lysed by a 7-minute incubation in 0.83% (weight/volume) ammonium chloride, and cells were immediately washed three times with DPBS. Spleen cells were suspended to a concentration of 3×10^6 cells/ml in RPMI-1640 medium containing 5% fetal calf serum (FCS), 100 units/ml penicillin, 100 μg/ml streptomycin, 2 mM L-glutamine, 0.1 mM non-essential amino acids, 1 mM sodium pyruvate, and 50 μM 2-mercaptoethanol. Cells were cultured at a concentration of 6×10^5 cells/200 μl culture medium/well in 96-well, flat-bottomed, microculture plates, and were incubated for 72 hours in a humidified atmosphere of 95% air and 5% CO2 at 37° C. At the end of this time, 1 μCi tritiated thymidine (3H-TdR) was added to each well in a 10 μl volume and the cultures were further incubated for 18 hours. Cells from each microculture were harvested on fibroglass filters with multiharvester and counted in liquid scintillation β counter.\nMitogens and antigens were diluted to appropriate concentrations in the incubation medium and added to the wells at the beginning of incubation period to give a final concentration of 1.0 μg/ml lipopolysaccharide (LPS), 1.0 μg/ml Concanavalin A (ConA) or 10 μg/ml beta2-Glycoprotein I (beta2-GPI). Spontaneous proliferation (without mitogen or antigen) was also assessed.\nTo determine the effect of FTS on the MRL/lpr and MRL/++ mouse splenocyte proliferation ex vivo, spleen cells suspensions were prepared from three individual spleens per group, and were separately analyzed in culture (in triplicate). Splenocyte proliferation was evaluated in the presence of LPS, ConA or β2-GPI.\nThe results are expressed as the mean value of stimulation index per group. The stimulation index was calculated as follows: the mean dpm of cells cultured in the presence of mitogen/antigen divided by the mean dpm of cells cultured in the absence of mitogen/antigen.\nThe effect of FTS on lymphocyte proliferation in vivo in MRL/lpr and control MRL/++ mice was determined by ex-vivo experiments. The mice received 5 mg/Kg FTS (5 days a week) for 3 months and spleen lymphocyte proliferation assays were then performed in vitro with no added FTS. Baseline 3H-TdR incorporation was similar in all four groups examined except for a trend towards higher values in the MRL/++ mice treated with FTS. […] As described previously (18, 19), the response of the MRL/lpr mice to ConA was markedly lower than in the MRL/++ control mice. […] An antigen-specific proliferative response to β2-GPI was measured and a significant 50% reduction in the response of lymphocytes of FTS-treated mice was measured in both MRL/lpr and MRL/++ mice."}, "EAN in Lewis rats": {"system": "EAN in Lewis rats", "assay": "EAN rats, electrophysiology (tail nerve stimulation, CMAP)", "assay_type": "in vivo, rat", "settings": "day 20; FTS for 10 or 28 days", "experimental": "The animal was anesthetized with phenobarbital. […] Previous experience has shown that smaller amounts are necessary during the acute EAN disease phase in order to avoid mortality. Mono-polar needle electrodes were used to stimulate the sciatic nerve and the response was measured in the plantar muscle by a surface ring electrode (8). Alternatively, the tail nerves were stimulated and tail muscle response measured by the same electrodes. […] The tail response was therefore be used in the early disease stage (days 18-22). The latency of responses to distal and proximal stimulation were used to calculate nerve conduction velocity. The amplitude of the responses was used to assess conduction block. Electrophysiological assays were performed on day 20 in the 3 groups of rats described in the previous section."}, "human HSC": {"system": "human HSC", "assay": "PDGF-stimulated DNA synthesis ([3H]TdR) in human hepatic stellate cells", "assay_type": "cell-based", "settings": "PDGF-BB 10 ng/ml; 24 h FTS", "experimental": "Human HSCs were isolated from wedge sections of normal human liver unsuitable for transplantation as previously reported (6, 7). Briefly, after a combined digestion with collagenase/pronase, HSCs were separated from other liver nonparenchymal cells by ultracentrifugation over gradients of stractan (Cellsep™ isotonic solution, Larex Inc., St. Paul, Minn.). Extensive characterization was performed as described in (7). Cells were cultured on plastic culture dishes (Falcon, Becton Dickinson, Lincoln Park, N.J.) in Iscove's modified Dulbecco's medium supplemented with 0.6 U/ml insulin, 2.0 mmol/L glutamine, 0.1 mmol/L nonessential amino acids, 1.0 mmol/L sodium pyruvate, antibiotic antifungal solution (all provided by Gibco Laboratories, Grand Island, N.Y.) and 20% fetal bovine serum (Imperial Laboratories, Andover, U.K.). Experiments described in this study were performed on cells between third and fifth serial passages (1:3 split ratio) using three independent cell lines.\nDNA synthesis was measured as the amount of [Methyl-^3H]thymidine ([^3 H]TdR) incorporated into trichloroacetic acid-precipitable material. […] At the end of the pulsing period, [^3H]TdR incorporation into cellular DNA was measured as previously reported (8). Cell number was determined in three separate wells from each dish and results were expressed as cpm/10^5 cells."}},
  "data": [
    {"smiles": "CC(C)=CCC/C(C)=C/CC/C(C)=C/CSc1ccccc1C(=O)O", "note": "[FTS, farnesyl thiosalicylic acid]", "values": [
      {"measurement": "hepatic hydroxyproline levels", "setting": "[1]; TAA plus FTS, TAA alone 7.7±0.9", "value": "3.8±0.5", "unit": "mg/g protein"},
      {"measurement": "hepatic hydroxyproline levels", "setting": "[1]; control group treated with FTS only", "value": "1.6±0.1", "unit": "mg/g protein"},
      {"measurement": "reduction of the response to LPS (stimulation index)", "setting": "[2]; 5 mg/Kg FTS 5 days a week for 3 months", "value": "two-fold reduction"},
      {"measurement": "decrease in splenocyte proliferation to ConA, LPS and β2-GPI", "setting": "[2]; FTS 5 mg/Kg/day", "value": 50, "unit": "%"},
      {"measurement": "response to ConA (stimulation index)", "setting": "[2]; MRL/++ mice", "value": "not in lymphocytes of the FTS-treated MRL/++"},
      {"measurement": "response to ConA (stimulation index)", "setting": "[2]; MRL/lpr mice", "value": "further reduced"},
      {"measurement": "reduction in the proliferative response to β2-GPI", "setting": "[2]; both MRL/lpr and MRL/++ mice", "value": 50, "unit": "%"},
      {"measurement": "compound muscle action potentials (CMAPs), tail muscle", "setting": "EAN in Lewis rats", "value": "significant amelioration"},
      {"measurement": "FTS concentration affecting PDGF-stimulated 3H-thymidine incorporation into DNA", "setting": "human HSC", "value": "25 to 50", "unit": "µM"}
    ]}
  ]
}
